Test results as given in patent US8304412B2, “Cyclically substituted 3,5-dicyano-2-thiopyridines and use thereof” (Bayer Intellectual Property GmbH, priority 2006, dated 2012).

Assays:
Assay type in all cases: cell-based
[1] = biological target: T1, adenosine A1 receptor (Homo sapiens, UniProt P30542); assay: Indirect determination of adenosine agonism by gene expression (luciferase), A1 cells; conditions: 1 μM forskolin; stably transfected CHO cells; 50% inhibition of luciferase answer
T1 construct: expressed in transfected cells; host or cells: CHO (Chinese Hamster Ovary)
T1 sequence (P30542 1-326): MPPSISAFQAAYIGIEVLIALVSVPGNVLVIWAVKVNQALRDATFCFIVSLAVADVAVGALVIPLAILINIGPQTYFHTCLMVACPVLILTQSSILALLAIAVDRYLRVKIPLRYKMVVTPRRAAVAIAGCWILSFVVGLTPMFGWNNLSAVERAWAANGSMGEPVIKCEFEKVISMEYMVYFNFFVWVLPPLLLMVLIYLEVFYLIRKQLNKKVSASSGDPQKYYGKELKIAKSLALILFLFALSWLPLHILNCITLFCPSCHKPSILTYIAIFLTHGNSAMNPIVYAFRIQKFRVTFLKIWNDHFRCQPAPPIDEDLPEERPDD
Source text: (§1) B-1. Indirect Determination of the Adenosine Agonism by Way of Gene Expression
(§2) Cells of the CHO (Chinese Hamster Ovary) permanent cell line are transfected stably with the cDNA for the adenosine receptor subtypes A1, A2a and A2b. The adenosine A1 receptors are coupled to the adenylate cyclase by way of Gi proteins, while the adenosine A2a and A2b receptors are coupled by way of Gs proteins. In correspondence with this, the formation of cAMP in the cell is inhibited or stimulated, respectively. After that, expression of the luciferase is modulated by way of a cAMP-dependent promoter. The luciferase test is optimized, with the aim of high sensitivity and reproducibility, low variance and good suitability for implementation on a robot system, by varying several test parameters, such as cell density, duration of the growth phase and the test incubation, forskolin concentration and medium composition. The following test protocol is used for pharmacologically characterizing cells and for the robot-assisted substance screening:
(§3) The stock cultures are grown, at 37° C. and under 5% CO2, in DMEM/F12 medium containing 10% FCS (fetal calf serum) and in each case split 1:10 after 2-3 days. The test cultures are seeded in 384-well plates with 2000 cells per well and grown at 37° C. for approx. 48 hours. The medium is then replaced with a physiological sodium chloride solution (130 mM sodium chloride, 5 mM potassium chloride, 2 mM calcium chloride, 20 mM HEPES, 1 mM magnesium chloride hexahydrate, 5 mM sodium bicarbonate, pH 7.4). The substances to be tested, which are dissolved in DMSO, are pipetted into the test cultures (maximum final concentration of DMSO in the test mixture: 0.5%) in a dilution series of from 5×10^−11M to 3×10^−6M (final concentration). 10 minutes later, forskolin is added to the A1 cells and all the cultures are subsequently incubated at 37° C. for four hours. After that, 35 μl of a solution which is composed of 50% lysis reagent (30 mM disodium hydrogenphosphate, 10% glycerol, 3% TritonX100, 25 mM TrisHCl, 2 mM dithiotreitol (DTT), pH 7.8) and 50% luciferase substrate solution (2.5 mM ATP, 0.5 mM luciferin, 0.1 mM coenzyme A, 10 mM tricine, 1.35 mM magnesium sulfate, 15 mM DTT, pH 7.8) are added to the test cultures, which are shaken for approx. 1 minute and the luciferase activity is measured using a camera system. The EC50 values are determined, i.e., the concentrations at which 50% of the luciferase answer is inhibited in the case of the A1 cell, and, respectively, 50% of the maximum stimulation with the corresponding substance is achieved in the case of the A2b and A2a cells. […] Pharmacol., 357 (1998), 1-9).
(§4) Table 1 below lists the EC50 values of representative working examples for the receptor stimulation on adenosine A1, A2a and A2b receptor subtypes: […]

[2] = biological target: T2, adenosine A2a receptor (Homo sapiens, UniProt P29274); assay: Indirect determination of adenosine agonism by gene expression (luciferase), A2a cells; conditions: stably transfected CHO cells; 50% of maximum luciferase stimulation
T2 construct: expressed in transfected cells; host or cells: CHO (Chinese Hamster Ovary)
Source text: as §1, §2, §3, §4

[3] = biological target: T3, adenosine A2b receptor (Homo sapiens, UniProt P29275); assay: Indirect determination of adenosine agonism by gene expression (luciferase), A2b cells; conditions: stably transfected CHO cells; 50% of maximum luciferase stimulation
T3 construct: expressed in transfected cells; host or cells: CHO (Chinese Hamster Ovary)
T3 sequence (P29275 1-332): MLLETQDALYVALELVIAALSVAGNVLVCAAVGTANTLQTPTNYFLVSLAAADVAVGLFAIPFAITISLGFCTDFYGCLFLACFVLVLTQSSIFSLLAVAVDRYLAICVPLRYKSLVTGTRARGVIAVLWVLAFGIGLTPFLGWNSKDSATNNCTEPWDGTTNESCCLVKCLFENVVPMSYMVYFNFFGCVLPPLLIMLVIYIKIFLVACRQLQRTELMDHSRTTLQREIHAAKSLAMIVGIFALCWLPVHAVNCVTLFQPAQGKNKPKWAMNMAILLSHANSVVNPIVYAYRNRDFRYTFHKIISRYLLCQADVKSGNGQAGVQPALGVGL
Source text: as §1, §2, §3, §4

T2 sequence (P29274 whole entry): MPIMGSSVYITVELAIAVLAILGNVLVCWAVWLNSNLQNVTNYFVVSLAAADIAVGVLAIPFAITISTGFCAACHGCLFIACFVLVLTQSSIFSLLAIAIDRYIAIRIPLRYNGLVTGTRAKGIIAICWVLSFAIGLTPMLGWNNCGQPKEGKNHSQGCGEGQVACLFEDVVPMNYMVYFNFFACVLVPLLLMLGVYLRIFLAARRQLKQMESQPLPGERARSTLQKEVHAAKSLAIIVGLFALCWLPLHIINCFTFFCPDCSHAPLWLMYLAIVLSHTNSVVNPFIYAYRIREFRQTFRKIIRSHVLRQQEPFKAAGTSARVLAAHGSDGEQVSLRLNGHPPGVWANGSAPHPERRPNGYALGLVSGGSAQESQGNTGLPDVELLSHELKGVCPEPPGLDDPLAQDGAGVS

| Compound | EC50 [1] | EC50 [2] | EC50 [3] |
| --- | --- | --- | --- |
| N#Cc1cnc(SCc2csc(-c3ccc(C(=O)O)cc3)n2)c(C#N)c1C1CCCOC1 (racemic) [Example 65, rac-4-[4-({[3,5-Dicyano-4-(tetrahydro-2H-pyran-3-yl)pyridin-2-yl]sulfanyl}methyl)-1,3-thiazol-2-yl]benzoic acid] | 9.5 nM | > 3000 nM | 860 nM |
| N#Cc1c(N)nc(SCc2csc(-c3ccc(C(=O)O)cc3)n2)c(C#N)c1C1CCCCO1 (single isomer, unassigned) [Example 23] | 0.4 nM | 620 nM | 75 nM |
| Cc1nc(SCc2csc(-c3ccc(C(=O)O)cc3)n2)c(C#N)c(C2CCCCO2)c1C#N (single isomer, unassigned; (+)) [Example 56, (+)-4-[4-({[3,5-Dicyano-6-methyl-4-(tetrahydro-2H-pyran-2-yl)pyridin-2-yl]sulfanyl}methyl)-1,3-thiazol-2-yl]benzoic acid] | 0.8 nM | > 3000 nM | 51 nM |
| N#Cc1c(N)nc(SCc2csc(-c3ccc(C(=O)O)cc3)n2)c(C#N)c1C1CCCOC1 (single isomer, unassigned; (+)) [Example 62, (+)-4-[4-({[6-Amino-3,5-dicyano-4-(tetrahydro-2H-pyran-3-yl)pyridin-2-yl]sulfanyl}methyl)-1,3-thiazol-2-yl]benzoic acid] | 0.06 nM | > 3000 nM | > 3000 nM |
| N#Cc1c(N)nc(SCc2csc(-c3ccc(Cl)cc3)n2)c(C#N)c1C1CCCCO1 (single isomer, unassigned; ent-2) [Example 15, ent-2-Amino-6-({[2-(4-chlorophenyl)-1,3-thiazol-4-yl]methyl}thio)-4-(tetrahydro-2H-pyran-2-yl)-pyridine-3,5-dicarbonitrile] | 10 nM | 380 nM | 670 nM |
| N#Cc1c(N)nc(SCc2csc(-c3ccc(Cl)cc3)n2)c(C#N)c1[C@H]1CC[C@H](O)CC1 [Example 3, 2-Amino-6-({[2-(4-chlorophenyl)-1,3-thiazol-4-yl]methyl}thio)-4-(trans-4-hydroxycyclohexyl)-pyridine-3,5-dicarbonitrile] | 0.8 nM | 1260 nM | 558 nM |
| N#Cc1c(N)nc(SCc2csc(-c3ccc(Cl)cc3)n2)c(C#N)c1[C@H]1CC[C@@H](O)CC1 [Example 4] | 2.9 nM | 1100 nM | 320 nM |
| N#Cc1c(N)nc(SCc2csc(-c3ccc(Cl)cc3)n2)c(C#N)c1C1CCN(C(=O)CO)CC1 [Example 9, 2-Amino-6-({[2-(4-chlorophenyl)-1,3-thiazol-4-yl]methyl}thio)-4-(1-glycoloylpiperidin-4-yl)-pyridine-3,5-dicarbonitrile] | 8.9 nM | > 3000 nM | 791 nM |
| N#Cc1c(N)nc(SCc2csc(-c3ccc(Cl)cc3)n2)c(C#N)c1C1CCCCC1 [Example 29, 2-Amino-6-({[2-(4-chlorophenyl)-1,3-thiazol-4-yl]methyl}thio)-4-cyclohexylpyridine-3,5-dicarbonitrile] | 3.8 nM | > 3000 nM | 345 nM |
| CN1CCN(CCCNc2nc(SCc3csc(-c4ccc(Cl)cc4)n3)c(C#N)c(C3CCCCC3)c2C#N)CC1 [Example 35] | 68 nM | 1470 nM | > 3000 nM |
| N#Cc1c(N)nc(SCc2cccc(C(=O)O)c2)c(C#N)c1C1CCCCO1 (stereo not drawn) [Example 51] | 6.8 nM | > 3000 nM | > 3000 nM |
| N#Cc1c(N)nc(SCc2coc(-c3ccc(Cl)cc3)n2)c(C#N)c1C1CCCOC1 (stereo not drawn) [Example 58, 2-Amino-6-({[2-(4-chlorophenyl)-1,3-oxazol-4-yl]methyl}sulfanyl)-4-(tetrahydro-2H-pyran-3-yl)-pyridine-3,5-dicarbonitrile] | 11 nM | > 3000 nM | 950 nM |
| N#Cc1c(N)nc(SCc2cccc(C(N)=O)c2)c(C#N)c1C1CCCCC1 [Example 70] | 0.08 nM | 224 nM | 22 nM |
| Cc1sc(-c2ccc(Cl)cc2)nc1CSc1nc(N)c(C#N)c(C2CCCCC2)c1C#N [Example 76] | 106 nM | > 3000 nM | > 3000 nM |
| N#Cc1c(N)nc(SCc2coc(-c3ccc(F)c(Cl)c3)n2)c(C#N)c1[C@H]1CC[C@@H](O)CC1 [Example 78] | 17 nM | > 3000 nM | > 3000 nM |
